Earlier results as cited in patent US5173304A, “Agents for the treatment of severe pain and preparation of said agents” (Dolorgiet Beteiligungs GmbH, priority 1989, dated 1992).

Conditions: in vivo

CC(C)Cc1ccc(C(C)C(=O)O)cc1 (centres unmarked) [ibuprofen]
Analgesic effectiveness: effective analgesic | Tolerability: well tolerated
